Laboratory results taken from patent US20260183411A1, “TARGETING SORTILIN” (priority 2024, published 2026).
Where a SMILES comes first, the peptide text is derived from it.

Key:
MDA-MB-231 xenograft = experiment: MDA-MB-231 murine xenograft efficacy model; type: in vivo, mouse
Experimental: Murine xenograft experiments were conducted at WuXi AppTec and/or Charles River Laboratories and the care and use of animals was conducted in accordance with the regulations of the Association for Assessment and Accreditation of Laboratory Animal Care (AAALAC). MDA-MB-231 tumor cells (ATCC, Manassas, VA, cat #HTB-26) were grown and maintained in L15 medium supplemented with 10% heat inactivated fetal bovine serum, 1% Antibiotic-Antimycotic, and L-glutamine (2 mM) at 37° C. in an atmosphere in 5% CO2, 95% air. BALB/c Nude, female, 6-8 weeks, weighing approximately 18-22 g were purchased from Vital River Laboratory Animal Technology Co., LTD. Mice were inoculated subcutaneously at the right flank with MDA-MB-231 tumor cells (e.g., triple negative breast cancer cells) (10×10^6) in 0.2 mL of PBS with Matrigel (1:1) for tumor development. Animals were randomized and treatment was started when the average tumor volume reached approximately 150-200 mm^3 for the efficacy study. Dosing volume was adjusted based on body weight and was administered at 10 mL/Kg. […] Free MMAE payload was also tested, and similarly dissolved in 25 mM Histidine 10% sucrose pH 7 and one or more of the following doses, 0.6, 0.06 mg/kg, were administered to the mice i.v. at a QW×4 schedule. Tumor sizes were measured twice weekly in two dimensions using a caliper, and the volume in mm^3 calculated using the formula: V=0.5 a×b^2, where a and b are the long and short diameters of the tumor, respectively. TGI was calculated for each group using the formula: TGI (%)=[1−(Ti−T0)/(Vi−V0)]×100; where Ti is the average tumor volume of a treatment group on a given day, TO is the average tumor volume of the treatment group on the first day of treatment, Vi is the average tumor volume of the vehicle control group on the same day with Ti, and V0 is the average tumor volume of the vehicle group on the first day of treatment.
To characterize the effects of the MMAE payload alone, we included free MMAE at molar equivalency to PDCs, and tested at 0.6 and 0.06 mg/kg, as separate arms.
To characterize the effects of the MMAE payload alone, we included free MMAE at molar equivalency to PDCs, and tested at 0.6 mg/kg.

[1] = Murine plasma stability assay; type: in vitro ADME; conditions: mouse, 2 μM, 37° C., read-out: Murine plasma stability assay, T1/2
Experimental: Frozen plasma was thawed at 37° C. and centrifuged at 4000 rpm to remove any clots and transferred to 96-well reaction plates by WuXi AppTec. Test compounds were added to the reaction plate at a final concentration of 2 μM and either stopped immediately or incubated at 37° C. for 5 minutes, 10 minutes, 30 minutes, 60 minutes, or 120 minutes. At the end of incubation, stop solution consisting of 200 ng/mL tolbutamide and 200 ng/mL labetalol in ACN was added to precipitate protein and mixed thoroughly. Samples were then transferred to a bioanalysis plate and shaken for 10 minutes prior to HPLC-MS/MS analysis of percent remaining compound.
Table 14 tabulates the plasma stability for each of the three PDCs tested.

[2] = Murine hematotoxicity assay; type: in vivo, mouse; conditions: 3 mg/kg i.v. QW×4, BALB/c mice
Experimental: (§1) Murine hematotoxicity experiments were conducted at Charles River Laboratories and the care and use of animals was conducted in accordance with the regulations of the Association for Assessment and Accreditation of Laboratory Animal Care (AAALAC). Wild type BALB/c, female, 7-8 weeks, weighing approximately 18-22 g were randomized and dosed intravenously with control or test articles at a QW×4 schedule. Dosing volume was adjusted based on body weight and was administered at 10 mL/Kg. PDCs were dissolved in 25 mM Histidine 10% sucrose pH 7 and 3 mg/kg was administered. Free MMAE payload was also tested, and similarly dissolved in 25 mM Histidine 10% sucrose pH 7 and administered to the mice at a dose of […] by i.v. injection at a QW×4 schedule. 3 days following each dose, 150 μL of whole blood was collected via submandibular method and placed in K2 EDTA tubes stored on ice. Blood neutrophil counts were performed on the day of collection by IDEXX labs. Body weights were recorded twice a week until study endpoint.
as §1, with “As outlined in the material” for “Murine hematotoxicity experiments were conducted at Charles River Laboratories”, “methods” for “the care and use”, “Example 1, wild” for “animals was conducted in accordance with the regulations of the Association for Assessment and Accreditation of Laboratory Animal Care (AAALAC). Wild”, “PDCs were dissolved in 25 mM Histidine 10% sucrose pH 7 and 3 mg/kg was administered.” left out

Cyno SORT1 = experiment: SPR binding, Cyno SORT1; conditions: unconjugated peptide w/conjugation handles
Experimental: SPR analysis was performed on Series S CM5 chips (Cytiva) using a Biacore 8K instrument (Cytiva). Sensorgrams were double-referenced by subtracting the response on both a reference flow cell and a blank sample. Human SORT1 (78-755)-His (Acrobiosystems), human SORT1 (78-755)-His(GenScript), mouse SORT1 (76-753)-His (R&D Systems), rat SORT1 (76-752)-His (GenScript), and cyno SORT1 (76-753)-His (GenScript) were diluted to 20-60 μg/mL in 10 mM sodium acetate pH 4.5 buffer and immobilized onto Series S CM5 chips using amine coupling at a flow rate of 10 μL/min for 45-100 s.
For the single-cycle kinetics analysis runs, a running buffer of 1×PBS pH 7.4, 0.005% Tween-20 was used. Ten start-up cycles and a blank cycle preceded each analysis run. […] The kinetic rate constants (ka and kd) and the equilibrium binding constant (Kd) were calculated using a 1:1 kinetic binding model on the Biacore Insight Evaluation Software (Cytiva).
SPR analysis was performed on Series S CM5 chips (Cytiva) using a Biacore 8K instrument (Cytiva). […] The kinetic rate constants (ka and […]) and the equilibrium binding constant (Kd) were calculated using a 1:1 kinetic binding model on the Biacore Insight Evaluation Software (Cytiva). […] The SORT1 affinities of the conjugates were determined to be peptide 2 conjugate >peptide 1 conjugate >peptide 3 conjugate.

GAPDH mRNA [3] = experiment: GAPDH mRNA knockdown in HEK293 cells (RT-qPCR); type: cell-based
Experimental: (§2) These GAPDH siRNA-peptide conjugates were then evaluated in HEK293 cells and the neuronal cell line, neuro2A.

GAPDH mRNA [4] = experiment: GAPDH mRNA knockdown in differentiated Neuro-2a cells (RT-qPCR); type: cell-based
Experimental: as §2

[5] = target: T1, SORT1 (Sortilin), Acrobiosystems SON-H52H5 (human, UniProt Q99523 78-755, biotinylated 1:1 with NHS-PEG4 Biotin when immobilised in the protein-loaded GCI format); experiment: fluorescence polarization, direct titration of the FAM-labelled peptide with SORT1
T1 construct: Used in FP, GCI and the peptide microarray; also called SORT1-Ag; SORT1 antigen
T1 sequence (looked up): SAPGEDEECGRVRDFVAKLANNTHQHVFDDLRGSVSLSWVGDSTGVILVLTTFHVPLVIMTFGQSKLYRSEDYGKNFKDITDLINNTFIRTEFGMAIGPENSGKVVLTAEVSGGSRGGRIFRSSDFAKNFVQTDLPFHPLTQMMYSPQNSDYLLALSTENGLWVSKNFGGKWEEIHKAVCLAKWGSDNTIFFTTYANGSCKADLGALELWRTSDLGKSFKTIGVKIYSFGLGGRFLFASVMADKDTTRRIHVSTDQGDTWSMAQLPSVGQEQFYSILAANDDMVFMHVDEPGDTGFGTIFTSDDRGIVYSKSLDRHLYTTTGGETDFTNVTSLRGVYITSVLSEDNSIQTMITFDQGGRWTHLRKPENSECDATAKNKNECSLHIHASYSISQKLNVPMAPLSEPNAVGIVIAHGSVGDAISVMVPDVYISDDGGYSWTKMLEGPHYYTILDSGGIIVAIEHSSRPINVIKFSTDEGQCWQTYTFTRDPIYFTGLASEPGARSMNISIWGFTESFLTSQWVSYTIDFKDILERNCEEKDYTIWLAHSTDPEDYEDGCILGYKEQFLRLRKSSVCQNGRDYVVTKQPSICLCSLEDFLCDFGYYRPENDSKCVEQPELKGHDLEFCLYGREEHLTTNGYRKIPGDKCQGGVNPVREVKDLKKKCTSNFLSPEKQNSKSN
Experimental: A 12-point, two-fold dilution series of target protein was prepared in a V-bottom 96-well plate for a total volume of 25 μL.
A 10× working solution of FAM-labeled peptides was prepared in the FP buffer (1×PBS, pH 7.4, 0.1% Tween-20). An aliquot of 2.5 μL of the 10× working solution of the FAM-labeled peptides was then added to 22.5 μL of the SORT1 dilution series and pipetted to mix in a V-bottom 96-well plate. A negative control with no target protein was also prepared to assess baseline polarization of the FAM-labeled peptides. […] The data was then fitted to a One Site-Specific Binding curve in GraphPad to calculate the KD.

Molecule: CCCC[C@@H]1NC(=O)[C@H](CCCNC(=N)N)NC(=O)[C@H](CCCCNC(=O)CN(C)C(=O)CN(C)C(=O)CN(C)C(=O)CN(C)C(=O)CCNC(=O)CCCC(=O)N[C@H](C(=O)N[C@@H](CCCNC(N)=O)C(=O)Nc2ccc(COC(=O)N(C)[C@H](C(=O)N[C@H](C(=O)N(C)[C@@H]([C@@H](C)CC)[C@@H](CC(=O)N3CCC[C@H]3[C@H](OC)[C@@H](C)C(=O)N[C@H](C)[C@@H](O)c3ccccc3)OC)C(C)C)C(C)C)cc2)C(C)C)NC(=O)[C@H](CC(N)=O)NC(=O)[C@H](CCC(=O)O)NC(=O)[C@@H](NC(=O)[C@H](Cc2c[nH]c3ccccc23)NC(=O)[C@H](CCCNC(=N)N)NC(C)=O)CSSC[C@@H](C(=O)N[C@@H](CCCNC(=N)N)C(=O)N[C@@H](CCC(N)=O)C(=O)N[C@H](C(=O)N[C@@H](CC(C)(C)C)C(=O)O)C(C)(C)C)NC(=O)[C@H]([C@@H](C)O)NC(=O)[C@H](Cc2ccccc2)NC1=O [Arb_cyclic_G23-PDC]
- tumor growth inhibited relative to vehicle (MDA-MB-231 xenograft; 3 mg/kg i.v. QW×4, day 22): 68%
- body weight loss (Example 8) (MDA-MB-231 xenograft; PDCs 3 mg/kg, free MMAE at molar equivalency (0.6 mg/kg)): body weight loss tracked each other
- half-life [1]: 57.4 min
- blood neutrophil counts compared to vehicle or MMAE treatment [2]: reduced neutrophil counts

Molecule: CC(C)C[C@H](NC(=O)[C@H](C)NC(=O)[C@@H]1CCCN1C(=O)[C@H](CC(=O)O)NC(=O)[C@H](CCCNC(=N)N)NC(=O)[C@H](CC(C)C)NC(=O)[C@@H]1CCCN1C(=O)[C@H](C)NC(=O)[C@H](CC(=O)O)NC(=O)[C@H](Cc1c[nH]c2ccccc12)NC(=O)[C@H](CCCNC(=N)N)NC(=O)[C@@H]1CCCN1C(=O)[C@H](C)N)C(=O)N[C@@H](CCCNC(=N)N)C(=O)N[C@@H](CCC(N)=O)C(=O)N[C@H](C(=O)N[C@@H](CC1CCC1)C(=O)O)C(C)(C)C [SORT1 peptide 2]
- Cyno Ka Kd (Cyno SORT1): 0.152 nM

Molecule: CCCC[C@@H]1NC(=O)[C@H](CCCNC(=N)N)NC(=O)[C@H](CCCCN)NC(=O)[C@H](CC(N)=O)NC(=O)[C@H](CCC(=O)O)NC(=O)[C@@H](NC(=O)[C@H](Cc2c[nH]c3ccccc23)NC(=O)[C@H](CCCNC(=N)N)NC(C)=O)CSSC[C@@H](C(=O)N[C@@H](CCCNC(=N)N)C(=O)N[C@@H](CCC(N)=O)C(=O)N[C@H](C(=O)N[C@@H](CC(C)(C)C)C(=O)O)C(C)(C)C)NC(=O)[C@H]([C@@H](C)O)NC(=O)[C@H](Cc2ccccc2)NC1=O [SORT1 peptide 3] (HELM PEPTIDE1{[ac].R.W.C.E.N.K.R.[Nle].F.T.C.R.Q.[CC(C)(C)[C@H](N[*:1])C(=O)[*:2]].[CC(C)(C)C[C@H](N[*:1])C(=O)O]}$PEPTIDE1,PEPTIDE1,4:R3-12:R3$$$V2.0; N-terminus and C-terminus assumed)
- Cyno Ka Kd (Cyno SORT1): 0.191 nM

Molecule: Ac-C(bAla)(Sar)(Sar)(Sar)(Sar)APRWDAPLRDPALRQ(B13)(G48) (CXXXXXAPRWDAPLRDPALRQXX; N-methyl; non-natural residues; cyclised or stapled) [Peptide 2-GAPDH6-SPDP]
- GAPDH mRNA % knockdown compared to untreated cells (GAPDH mRNA [3]; HEK293 + CQ): 80%
- GAPDH mRNA % knockdown compared to untreated cells (GAPDH mRNA [3]; HEK293 − CQ (chloroquine)): 0%
- GAPDH mRNA % knockdown compared to untreated cells (GAPDH mRNA [4]; Neuro2a + CQ): 0%
- GAPDH mRNA % knockdown compared to untreated cells (GAPDH mRNA [4]; Neuro2a − CQ): 3%

B1: PRGN_scr (peptide)
peptide: {FAM}-QRLARLPRDLLAWPPAD-OH
notes: also called negative control peptide
- binding result [5]: no binding
